Data set [1] can be described thus: method code SF, from PMID: 8453740.
A short description of data set [2]: method code SF-W, from PMID: 8453740.

Consider `CCCCCCOc1cccc(-c2cn(C)cc(-c3ccccc3)c2=O)c1`, for which, in data set [1], the lipophilicity (logP) was determined as 4.59.

On to `CNC(=O)c1cccc(Oc2cc(C)ccc2C)c1`, for which the logP in data set [1] stood at 3.76. On the same count and under the same terms, in the case of `CNC(=O)c1cccc(Oc2ccccc2)c1` it was 2.86.

In turn, `CCCCCCN(C)C(=O)c1cccc(Oc2ccccc2)c1` gave a logP of 5.01. `CN(C)C=C1OC(=O)C(C#N)=C1c1ccccc1` registered a lipophilicity (logP) in data set [1] of 1.07. On to `CCCOc1cccc(-c2cn(C)cc(-c3ccccc3)c2=O)c1`, for which the logP in data set [1] was determined as 2.98. Same read-out and setting: in the case of `COc1cccc(-c2cn(C)cc(-c3ccccc3)c2=O)c1` it was 1.94; in that of `CCCCN(C)C(=O)c1cccc(Oc2ccccc2)c1`, 3.89; in that of `Cc1ccc(C)c(Oc2cccc(C(=O)NC(C)(C)C)c2)c1`, 4.78.

As to `CCCCCCOc1cccc(-c2cn(C)cc(-c3ccc(Cl)cc3)c2=O)c1`, the logP came to 5.23. `Cc1ccc(C)c(Oc2cccc(C(=O)NC(C)C)c2)c1` showed a log partition coefficient (logP) in data set [1] of 4.35. With `CNc1cnn(-c2cccc(C(F)(F)F)c2)c(=O)c1Cl`, the logP in data set [2] came to 2.52. `CN(C)C(=O)c1cccc(Oc2ccccc2)c1` gave a logP in data set [1] of 2.57. Same read-out and setting: in the case of `CCCCCN(C)C(=O)c1cccc(Oc2ccccc2)c1` it was 4.43; in that of `CCCCCOc1cccc(-c2cn(C)cc(-c3ccccc3)c2=O)c1`, 4.07; in that of `CCCN(C)C(=O)c1cccc(Oc2ccccc2)c1`, 3.44. For `CCN(C)C(=O)c1cccc(Oc2ccccc2)c1`, the logP in data set [1] worked out at 2.98. Still for that read-out and setting: the value for `CNC1=C(c2cccc(C(F)(F)F)c2)C(=O)C(c2ccccc2)O1` (stereo not drawn) was 3.22.

For the origin of these results see the SangsterLogP compilation.
